One series has as its target T1, intracellular CTSC (Homo sapiens, UniProt P53634).
T1 construct: endogenous in cells; host or cells: U937
The series can be described thus: CTSC cell-based assay using the U937 cell line. The following applies: read-out: Cell-Based Enz (IC50: nM). As for the experimental part: Cell-based CTSC enzymatic activity assays were performed in 96-well clear-bottom black microplates. […] The detection substrate, H-Gly-Arg-AFC, was diluted to 100 µM in serum-free medium and stored for later use. U937 cells in the logarithmic growth phase were harvested, washed with PBS, and counted. A single-cell suspension was prepared at a density of 1.0 × 10^6 cells/mL using serum-free medium. 30 µL of cell suspension was seeded into each well of the 96-well plate. To the test wells, 10 µL of the compound working solution was added, while 10 µL of serum-free medium was added to the control wells. The plate was pre-incubated in a cell culture incubator at 37 °C for 3 h. Subsequently, 10 µL of H-Gly-Arg-AFC was added to initiate the enzymatic reaction, and the plate was further incubated at 37 °C for 1 h. Fluorescence measurements were performed using a multimode microplate reader at excitation/emission wavelengths of 400/505 nm. Each group of tests was independently repeated at least 3 times, and IC50 values were calculated using SPSS 10.0.

The nature of series [1]: Cytotoxicity assay, U937 cell line. It is filed as cell-based. The following applies: human, U937 cells. As for the experimental part:
(§1) RAW264.7 cells and U937 cells in the logarithmic growth phase were counted and diluted, and the concentrations of the single-cell suspensions of the two types of cells were adjusted to 5 × 10^4 cells/mL and 3 × 10^4 cells/mL, respectively. After thorough mixing, the cells were seeded into a 96-well plate, with 100 μL of cell suspension added to each well. Prepare the working solution of test compounds using the corresponding medium as the solvent, with the concentration of working solution being 2 times the final test concentration (2.5 μM, 5 μM, 10 μM, 20 μM, and 40 μM). Twenty-four hours after cell seeding, the compound working solutions were added to the compound test wells, and the same volume of medium was added to the negative control wells, followed by continuous incubation for another 24 h. Only the wells with the same volume but without cells served as the blank control group. The CellTiter-Lumi™ luminescent cell viability assay kit (Beyotime Biotechnology, Shanghai, China, C0065XL) was used to detect cell viability according to the standard operating procedures. Each group of tests was independently repeated at least 3 times, and IC50 values were calculated using SPSS 10.0.

Series [2] can be described thus: Cytotoxicity assay, RAW264.7 cell line. The format is cell-based. The following applies: mouse, RAW264.7 cells. As for the experimental part:
as §1

The next series addresses CTSC (Homo sapiens, UniProt P53634). The series can be described thus: Human recombinant CTSC isolated enzyme assay. It is filed as biochemical. Set-up: purchased R&D Systems. The following applies: human recombinant CTSC, cell-free, 12-point dose-response; read-out: CTSC Enz (IC50: nM). As for the experimental part: Both recombinant CTSL and CTSC for in vitro cell-free-based enzymatic activity assay can be purchased from R&D Systems (Minneapolis, MN, USA), a biotechnology company. According to the standardized procedures and material ratios provided by R&D Systems, prepare the activation solution (25 mM MES + 5 mM DTT, pH 6.0) and the assay solution (25 mM MES + 50 mM NaCl + 5 mM DTT, pH 6.0) in advance for later use. Dilute the detection substrate H-Gly-Arg-AMC to a 200 µM solution with the assay solution for standby. Prepare the working solution of compounds to be tested using the assay solution, with the concentration of working solution being 10 times the final test concentration. Dilute CTSC and CTSL, respectively, with cold activation solution. Thoroughly mix the two activation solutions containing the proteins to achieve final concentrations of 300 nM for CTSL and 440 nM for CTSC. After co-incubation for 1 h, the activated CTSC treated with CTSL can be used for the enzymatic activity inhibition efficacy test of compounds. Dilute the activated CTSC to 4.4 nM with cold assay buffer. Incubate 4 μL of the activated CTSC with 1 μL of the compound working solution (test group) or 1 μL of blank assay solution (control group) at room temperature for 3 h. Then, add 5 μL of the detection substrate to achieve a final concentration of 100 μM. Mix 5 µL each of the assay solution and the substrate solution as the blank group. After 1 h, the absorbance of detection substrate was measured using a multifunctional microplate reader at excitation/emission wavelengths of 380 nm/460 nm. The inhibitory efficacy of molecules on enzyme activity was calculated based on the absorbance difference between test group and control group. […] Each group of tests mentioned above was independently repeated at least 3 times, and IC50 values were calculated using SPSS 10.0.

A value given as a limit tells only on which side of the number the result lay.

The values below come from paper PMC12610274, “Identification of Marrubiin as a Cathepsin C Inhibitor for Treating Rheumatoid Arthritis” (Molecules, 2025).

T1 sequence (P53634 25-463): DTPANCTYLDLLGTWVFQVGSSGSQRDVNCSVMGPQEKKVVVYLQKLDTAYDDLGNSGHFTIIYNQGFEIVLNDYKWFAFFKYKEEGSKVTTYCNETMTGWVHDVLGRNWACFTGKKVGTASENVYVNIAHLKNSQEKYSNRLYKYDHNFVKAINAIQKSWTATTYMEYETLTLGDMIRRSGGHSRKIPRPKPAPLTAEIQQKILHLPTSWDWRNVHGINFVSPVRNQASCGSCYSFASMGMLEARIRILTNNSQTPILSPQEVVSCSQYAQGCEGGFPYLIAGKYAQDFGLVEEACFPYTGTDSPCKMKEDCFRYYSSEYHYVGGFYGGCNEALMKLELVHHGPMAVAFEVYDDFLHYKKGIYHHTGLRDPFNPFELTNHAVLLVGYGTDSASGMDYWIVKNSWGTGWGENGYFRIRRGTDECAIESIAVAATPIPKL
Chain of CTSC (P53634 25-134 limits assumed): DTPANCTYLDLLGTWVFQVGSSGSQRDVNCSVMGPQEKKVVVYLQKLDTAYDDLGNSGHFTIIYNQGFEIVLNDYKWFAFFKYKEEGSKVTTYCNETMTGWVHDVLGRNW
Chain of CTSC (P53634 231-394 limits assumed): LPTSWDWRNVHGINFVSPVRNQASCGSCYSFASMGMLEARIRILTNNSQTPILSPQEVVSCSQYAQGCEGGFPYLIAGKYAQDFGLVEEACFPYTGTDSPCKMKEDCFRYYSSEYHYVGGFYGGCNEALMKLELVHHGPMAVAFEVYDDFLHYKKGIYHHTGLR
Chain of CTSC (P53634 395-463 limits assumed): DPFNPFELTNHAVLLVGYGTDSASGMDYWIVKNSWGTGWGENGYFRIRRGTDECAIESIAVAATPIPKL

Usually IC50 stands for the concentration that gives 50% inhibition. For the compound `N[C@H]1CONC1=O` [L-Cycloserine, L-cycloserine], the results for the IC50 on intracellular CTSC and on CTSC were above 5000 nM and 1101 ± 2 nM, respectively. Further, the IC50 at 24 h in series [1] and in series [2] was above 10 µM in each case.
Take `CC1(C)CC[C@]2(C(=O)O)[C@H](O)C[C@]3(C)C(=CC[C@@H]4[C@@]5(C)CC[C@H](O)[C@@](C)(C=O)[C@@H]5CC[C@]43C)[C@@H]2C1` [Quillaic acid, quillaic acid]: the results for the IC50 at intracellular CTSC and on CTSC were above 5000 nM and 125 ± 2.9 nM, respectively. The concentration for half-maximal inhibition (IC50) at 24 h in series [1] and in series [2] was above 10 µM each time.
With `CN1C2CC(O)CC1C1OC12` (stereo not drawn) [Scopine, scopine], the figures for the IC50 at intracellular CTSC and at CTSC were 337 ± 1.8 nM and 135 ± 4.7 nM, respectively. Besides, the IC50 at 24 h in series [1] and in series [2] was above 10 µM in each case.
